Measurements from patent EP2982368A1, “Small molecule compounds displacing focal adhesion core components” (Universität Konstanz, priority 2014, dated 2016).
“Also recorded” adds a separate entry of the source.

How the values were obtained:
focal adhesion proteins = test: Localization of focal adhesion proteins (fluorescent fusion proteins) in presence of Mb31; assay type: cell-based, Mouse; details: 10 µM Mb31, 30 min; value is the protein
Protocol: In order to investigate the kinetics of FAK displacement at focal adhesions a time series was performed. GFP-FAK MEFs were treated with 20 µM of Mb31 or Mb36 and fixed after different time points. […] Mb36 kinetic was slightly slower with FAK delocalization after 20 min. In addition, GFP-FAK MEFs were treated with increasing concentrations of Mb31 or Mb36 to determine the minimum concentration required to interfere with FAK localization. Untreated or solvent (DMSO) treated cells show the expected localization of FAK at focal adhesions. […] Already 2 µM of Mb31 were sufficient to induce FAK displacement. […] Due to the faster kinetic and lower IC50 compared to Mb36 further studies were mainly performed using Mb31. […] In contrast, vinculin localization and the focal adhesion localization of talin, α-actinin, and zyxin is not disturbed (Figure 5 and Table 1).
Mouse embryonic fibroblasts expressing the indicated proteins as fluorescent fusion proteins were incubated with 10 µM Mb31 or solvent alone for 30 min. Afterwards, the cells were fixed and the localization of the focal adhesion proteins was analyzed microscopically.

[1] = biological target: T1, Kinase domain of human FAK (Homo sapiens, UniProt Q05397, P410G); test: ELISA-based in vitro kinase assay; assay type: biochemical; details: poly-Glu-Tyr substrate, 1 h at 30°C
T1 construct: Kinase domain of human FAK (aa 410-689, hFAK-KD) was expressed; 6xHis (N); made in house; host or cells: Sf9 insect cells (baculovirus, pVL1392)
T1 sequence (Q05397 410-689 P410G): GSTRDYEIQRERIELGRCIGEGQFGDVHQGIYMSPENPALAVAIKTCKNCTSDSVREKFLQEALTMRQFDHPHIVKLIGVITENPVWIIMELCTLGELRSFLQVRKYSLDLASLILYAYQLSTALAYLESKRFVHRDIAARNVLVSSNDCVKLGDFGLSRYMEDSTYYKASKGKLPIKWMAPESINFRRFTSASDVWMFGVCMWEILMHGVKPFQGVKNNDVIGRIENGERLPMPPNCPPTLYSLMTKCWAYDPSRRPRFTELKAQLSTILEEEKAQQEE
Protocol: Kinase domain of human FAK (aa 410-689, hFAK-KD) was expressed with an amino-terminal 6xHis-tag and a carboxy-terminal Nef epitope-tag. FAK residue 410 was changed from proline to glycine. Expression of the fusion protein was performed in Sf9 insect cells using the pVL1392 transfer vector and the BacuIoGold Transfection Kit (BD Biosciences, San Diego, USA). Cells were lysed in Sf9 lysis buffer (0.33% Tween20, 1 mM EDTA, 500 mM NaCl, 100 µM PMSF, 1 mM β-Mercaptoethanol in 25 mM TrisHCl, pH 7.5) for 20 min at 4°C. Subsequently, the lysate was cleared by centrifugation and hFAK-KD was purified from the soluble fraction under native conditions by FPLC using a HisTrapFFcrude 1 mL column (GE Healthcare, Munich, Germany)
A microtiter plate was coated with 2 µg/well of poly(Glu:Tyr) (4:1) copolymer (Sigma-Aldrich, Steinheim, Germany) as artificial FAK substrate and blocked with 2% BSA in PBS with 0.01% Tween20. Purified hFAK-KD together with 100 µM ATP were added in kinase buffer (125 mM NaCl, 48 mM MgCl2, 50 mM HEPES, pH 7.5) in presence of various concentrations of test compounds and incubated for 1 h at 30°C. The reaction was stopped by the addition of EDTA and wells were extensively washed with 0.05% Tween20 in PBS. Phosphorylated substrate was detected by monoclonal anti-phosphotyrosine antibody followed by peroxidasecoupled goat anti-mouse antibody. […] The absorbance was measured at 450 nm.

FAK = biological target: T2, FAK (Mus musculus, UniProt P34152); test: Reversibility of FAK displacement after compound washout; assay type: cell-based; details: 4 µM for 1 h
T2 construct: expressed in transfected cells; host or cells: FAK-/- (p53-/-) mouse embryonic fibroblasts stably re-expressing GFP-FAK
T2 sequence (P34152 whole entry): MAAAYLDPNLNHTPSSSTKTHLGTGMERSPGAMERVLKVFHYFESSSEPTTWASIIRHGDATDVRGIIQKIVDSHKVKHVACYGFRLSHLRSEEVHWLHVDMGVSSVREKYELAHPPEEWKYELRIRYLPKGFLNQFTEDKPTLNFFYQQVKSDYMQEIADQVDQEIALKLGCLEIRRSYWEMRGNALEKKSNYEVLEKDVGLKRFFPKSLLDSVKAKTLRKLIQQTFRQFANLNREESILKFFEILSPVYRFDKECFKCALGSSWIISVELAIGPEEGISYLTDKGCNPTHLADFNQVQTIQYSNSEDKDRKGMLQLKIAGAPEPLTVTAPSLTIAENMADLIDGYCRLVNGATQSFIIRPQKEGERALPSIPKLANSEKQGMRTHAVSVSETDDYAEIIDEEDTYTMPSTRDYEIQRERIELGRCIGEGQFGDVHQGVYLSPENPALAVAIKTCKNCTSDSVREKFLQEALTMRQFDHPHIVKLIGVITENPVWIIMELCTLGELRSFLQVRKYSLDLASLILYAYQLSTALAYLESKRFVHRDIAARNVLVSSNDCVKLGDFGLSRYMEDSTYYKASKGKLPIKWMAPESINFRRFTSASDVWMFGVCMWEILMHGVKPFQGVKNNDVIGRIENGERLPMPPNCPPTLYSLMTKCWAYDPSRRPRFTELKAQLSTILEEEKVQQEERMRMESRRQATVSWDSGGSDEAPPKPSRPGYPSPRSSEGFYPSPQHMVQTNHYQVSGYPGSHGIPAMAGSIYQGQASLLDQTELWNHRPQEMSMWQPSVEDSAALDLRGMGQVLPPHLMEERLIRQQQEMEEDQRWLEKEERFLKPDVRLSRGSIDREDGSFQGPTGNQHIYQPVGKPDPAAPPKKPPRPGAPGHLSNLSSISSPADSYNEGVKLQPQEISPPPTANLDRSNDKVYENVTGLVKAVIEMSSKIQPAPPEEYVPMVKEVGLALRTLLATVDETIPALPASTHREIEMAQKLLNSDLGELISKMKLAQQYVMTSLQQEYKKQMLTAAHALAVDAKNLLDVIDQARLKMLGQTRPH
Protocol: In order to analyze whether FAK or its binding partner paxillin are degraded after displacement, serum-starved GFP-FAK MEFs were stimulated with normal growth medium in presence of increasing concentrations of Mb31. After 30 min cells were lysed and protein levels were determined by immunoblotting. […] In line with this, in vitro activity of purified FAK kinase domain was not altered in presence of Mb31 (Figure 8). […] Considering, that paxillin and FAK are not degraded in Mb31 treated GFP-FAK MEFs the inventors further investigated whether FAK displacement is reversible. GFP-FAK MEFs were seeded on fibronectin and treated with 4 µM Mb31 for 1 h. Following compound washout, cells were incubated for 1 h and fixed. […] To strengthen the hypothesis of FAK relocalization, in a second approach de novo protein synthesis was blocked with cycloheximide. Again, FAK containing focal adhesions could be clearly identified in the cell periphery.
MEFs were seeded on fibronectin fragment (4 µg/ml in PBS) in multi-well plates (Greiner Bio-One) and incubated for 4 h to allow spreading. Cells were fixed and permeabilized with MeOH at -20°C after pre-fixation with 4% paraformaldehyde. […] Cells were washed again with PBS to remove excess antibodies and were imaged using a Leica AF6000LX fluorescence microscope. […]

paxillin = test: Paxillin displacement in GFP-FAK MEFs (antibody staining, live cell imaging of mKate-paxillin); assay type: cell-based, mouse; details: 10 µM
Protocol: The C-terminal focal adhesion targeting domain of FAK binds to paxillin and talin and is responsible for an efficient recruitment of FAK to focal adhesions. Therefore, it was further investigated whether Mb31 targets FAK directly or possibly in an indirect way by displacement of FAK binding proteins paxillin or talin, respectively. GFP-FAK MEFs were treated with 10 µM of Mb31 and analyzed for paxillin and talin localization via antibody staining. […] To analyze whether FAK and paxillin displacement occur with the same temporal pattern GFP-FAK MEFs were transiently transfected to express mKate-tagged paxillin and living cells were imaged after application of 10 µM of Mb31. Along with FAK, paxillin delocalized rapidly and within 10 min almost no paxillin and FAK remained at focal adhesions. Strikingly, in cells over-expressing paxillin higher Mb31 concentrations were necessary in order to achieve efficient FAK displacement. In non-transfected cells already 4 to 5 µM Mb31 were sufficient, whereas in cells with strong over-expression of paxillin even at 10 µM FAK and paxillin displacement was only partial. […] Still, vinculin localization was not altered in FAK-deficient MEFs treated with Mb31.
MEFs were seeded on fibronectin fragment (4 µg/ml in PBS) in multi-well plates (Greiner Bio-One) and incubated for 4 h to allow spreading. Cells were fixed and permeabilized with MeOH at -20°C after pre-fixation with 4% paraformaldehyde. Cells were blocked with 10% CS in PBS (blocking buffer) and incubated with primary antibodies (α-talin, α-paxillin or α-vinculin) in blocking buffer for 1 h at room temperature. Cells were washed three times with PBS and were incubated with appropriate fluorescently labeled secondary antibodies. Cells were washed again with PBS to remove excess antibodies and were imaged using a Leica AF6000LX fluorescence microscope. To analyze reversibility compound treated cells were washed three times with pre-warmed growth medium. After washout cells were incubated 1 h in presence of 10 µg/ml cycloheximide. […]

in vitro activity of purified FAK kinase domain (FAK substrate phosphorylation) [1]: not altered
FAK displacement in treated cells (FAK; before washout): completely displaced
FAK localization after compound washout (FAK; washout, 1 h incubation): FAK relocalized to focal adhesions
Structure (SMILES): O=[N+]([O-])C=Cc1cc(Br)cs1 [FootLocker 1, 4-bromo-2-(2-nitrovinyl)thiophene]
Displaced from focal adhesions (focal adhesion proteins): Focal adhesion kinase (FAK) and Paxillin and Grb2 and CRKII
No effect on localization (focal adhesion proteins): Talin; also recorded: α-actinin; also recorded: Vinculin; also recorded: Zyxin
FAK and paxillin displacement in cells with strong over-expression of paxillin (paxillin): only partial
paxillin localization (paxillin; 30 min, antibody staining): displaced from focal adhesions
time until almost no paxillin and FAK remained at focal adhesions (paxillin; living cells expressing mKate-tagged paxillin): ≤ 10 min
